Entries after “also recorded” stand apart in the source; their conditions may differ. Marks after values point to notes of the source that are not given here.
Test system: male C57BL/6 mice
Test: spontaneous orientation (patroling behavior) test in the closed cross maze
Type: in vivo
Details: for F_PasN, M / F_PtrN, duration of the first patroling cycle (number of arm visits), M / L_TrnN, number of left turns, M / PatrlN, number of patrolling cycles, M / R_TrnN, number of right turns, M / S_PtrN, duration of the second patrolling cycle (number of arm visits), M / S_VisN, spontaneous stereotype behavior, M / rl_Ind, asymmetry index of turns, M / F_ChTm, latency of the first arm visit, M / F_GlTm, length of the first arm visit, M / T_ChTm, total time spent in the central compartment of the maze, M / T_GlTm, total time spent in the side arms of the maze, M: 1 hour after treatment; for nootropic effect (decrease in F_PtrN and S_PtrN, increase in PatrlN): single administration into stomach
Procedure: Preclinical evaluation of nootropic and sedative activity of the compounds was performed in mice using spontaneous orientation (patroling behavior) test in the cross maze, that allows simultaneous evaluation of nootropic, tranquilizing, sedative and psychostimulating effects of the compounds.
For evaluation of the exploratory behavior of the animals the closed cross maze test was used (Salimov R. M., Evaluation of the ordering of the way in the process of exploratory behavior in mice. Journal of the Higher Nervous Activity, 1988, v. 38, #3, pp. 569-571).
The mouse was placed in the central compartment of the maze and the sequence of its visits in different compartments was recorded semi-automatically.
Test was completed after 12 visits (Salimov R. M., Evaluation of the ordering of the way in the process of exploratory behavior in mice. Journal of the Higher Nervous Activity, 1988, v.38, #3, pp. 569-571; Salimov R. M., McBride W. J., Sinclair J. D., Lumeng L., Li T. -K. Performance in the cross-maze and slip funnel tests of four pairs of rat lines selectively bred for divergent alcohol drinking behavior. Addict. Biol. 1996a, 1:273-280; Salimov, R. M., McBride, W. J., McKenzie, D. L., Lumeng, L. and Li, T. -K. Ethanol consumption by adolescent alcohol-preferring P rats on subsequent behavioural performance in the cross-maze and slip funnel tests. Alcohol. 1996b, 13: c. 297-300).
Subsequent computerized analysis of the record singled out a number of behavioral characteristics. The most informative among them were:
1) The total time spent by the animal in the central compartment of the maze—T_ChTm, and the total time spent by the animal in the side arms of the maze—T_GlTm.
These variables reflect the level of the motor activity of the animal and also reflect the intensity of their exploratory drive for the new environment. […] Alcohol 20:61-68; 2000; Markina N. V., Salimov R. M., Poletaeva I. I. Exploratory behaviour of F2 crosses of mouse lines having selected for different brain weight: A multivariate analysis. Prog. Neuro-Psychopharmacol. Biol. Psychiat. 2004, 28(3):583-589).
2) The latency (variable F_ChTm) and the length of the first arm visit (F_GlTm).
These variables reflect the level of anxiety of the animal in the new environment and can be used for the evaluation of the tranquilizing (anxiolythic) effect of the drug (Salimov, R. M. Different behavioral patterns related to alcohol use in rodents: A factor analysis. Alcohol. 1999, 17:157-162).
3) The duration of the first patroling cycle—variable F_PtrN, and the duration of the second patrolling cycle—variable S_PtrN.
These variables are measured by the number of the animal's visits in the maze arms, performed by the animal for the exploration of the environment before it visits all 4 arms at least once (Salimov R. M., Evaluation of the ordering of the way in the process of exploratory behavior in mice. Journal of the Higher Nervous Activity, 1988, v.38, #3, pp. 569-571; Salimov R. M., McBride W. J., Sinclair J. D., Lumeng L., Li T. -K. Performance in the cross-maze and slip funnel tests of four pairs of rat lines selectively bred for divergent alcohol drinking behavior.
4) The number of patrolling cycles—variable PatriN, executed during the time of the experiment, as one of the characteristics of the efficiency of exploratory behavior. The more patroling cycles were accomplished, the more “systematic” and efficient was the exploration of the maze.
Variables from groups 3 and 4 can be used for the evaluation of the nootropic activity of the drugs.
5) The number of right turns—variable R_TrnN, and the number of left turns—variable L_TrN, executed by the animals moving from one arm of the maze to the other, as well as asymmetry index—variable rl_Ind—of these turns:
rl_Ind ═R_TrnN*(R_TrnN+L_TrnN)^−1
6) The spontaneous stereotype behavior—variable S_VisN, that characterizes animal's visiting two arms of the maze in turn more than two times in a row. […]

[1] = 300 mg/kg, single dose into stomach, N = 15
[2] = 300 mg/kg, single dose into stomach, N = 15, in s (unit assumed)
[3] = 1 mg/kg, single dose, N = 15, in s (unit assumed)
[4] = single administration 0.5 mg/kg
[5] = 2.5 mg/kg, single dose into stomach, N = 12
[6] = 2.5 mg/kg, single dose into stomach, N = 12, in s (unit assumed)
[7] = 5.0 mg/kg, single dose into stomach, N = 12
[8] = 5.0 mg/kg, single dose into stomach, N = 12, in s (unit assumed)
[9] = single administration, 2.5 and 5.0 mg/kg doses
[10] = 100 mg/kg, single dose into stomach, N = 15
[11] = 100 mg/kg, single dose into stomach, N = 15, in s (unit assumed)

NC(=O)CN1CCCC1=O [Piracetam, reference compound]
F_PasN, M [1]: 4.1
F_PtrN, duration of the first patroling cycle (number of arm visits), M [1]: 4.5*
L_TrnN, number of left turns, M [1]: 4.5*
PatrlN, number of patrolling cycles, M [1]: 2.1
R_TrnN, number of right turns, M [1]: 3.4*
S_PtrN, duration of the second patrolling cycle (number of arm visits), M [1]: 5.4
S_VisN, spontaneous stereotype behavior, M [1]: 4.3*
rl_Ind, asymmetry index of turns, M [1]: 0.4*
F_ChTm, latency of the first arm visit, M [2]: 11.6
F_GlTm, length of the first arm visit, M [2]: 25.0
T_ChTm, total time spent in the central compartment of the maze, M [2]: 46.1
T_GlTm, total time spent in the side arms of the maze, M [2]: 135.1
nootropic effect (decrease in F_PtrN and S_PtrN, increase in PatrlN) (300 mg/kg): nootropic effect

O=C(CCCN1CCC(O)(c2ccc(Cl)cc2)CC1)c1ccc(F)cc1 [Haloperidol, reference compound]
F_PtrN, duration of the first patroling cycle (number of arm visits), M (1 mg/kg, single dose, N = 15): 6.09
L_TrnN, number of left turns, M (1 mg/kg, single dose, N = 15): 3.36
PatrlN, number of patrolling cycles, M (1 mg/kg, single dose, N = 15): 1.91
R_TrnN, number of right turns, M (1 mg/kg, single dose, N = 15): 3.91
S_PtrN, duration of the second patrolling cycle (number of arm visits), M (1 mg/kg, single dose, N = 15): 5.20
S_VisN, spontaneous stereotype behavior, M (1 mg/kg, single dose, N = 15): 2.35*
rl_Ind, asymmetry index of turns, M (1 mg/kg, single dose, N = 15): 0.54
F_ChTm, latency of the first arm visit, M [3]: 19.30*
F_GlTm, length of the first arm visit, M [3]: 31.85*
T_ChTm, total time spent in the central compartment of the maze, M [3]: 100.65*
T_GlTm, total time spent in the side arms of the maze, M [3]: 284.67*
sedative effect (reduction in the speed of movement in the maze; increase in T_ChTm and T_GlTm) [4]: sedative effect
spontaneous stereotype behavior (variable S_VisN), change [4]: decrease

Cc1ccc2c(c1)[C@@H]1CN(C)CC[C@H]1N2 [Trans-(−)-isomer, (−)-trans-2,3,4,4a,5,9b-hexahydro-2,8-dimethyl-1H-pyrido[4,3-b]indole]
F_PtrN, duration of the first patroling cycle (number of arm visits), M [5]: 6.10
L_TrnN, number of left turns, M [5]: 3.00
PatrlN, number of patrolling cycles, M [5]: 1.67
R_TrnN, number of right turns, M [5]: 3.08
S_PtrN, duration of the second patrolling cycle (number of arm visits), M [5]: 4.43*^+
S_VisN, spontaneous stereotype behavior, M [5]: 6.33
T_GlTm, total time spent in the side arms of the maze, M [5]: 166.78*^+
rl_Ind, asymmetry index of turns, M [5]: 0.50
F_ChTm, latency of the first arm visit, M [6]: 10.75
F_GlTm, length of the first arm visit, M [6]: 20.27
T_ChTm, total time spent in the central compartment of the maze, M [6]: 33.10
F_PtrN, duration of the first patroling cycle (number of arm visits), M [7]: 5.42
L_TrnN, number of left turns, M [7]: 3.83
PatrlN, number of patrolling cycles, M [7]: 2.08
R_TrnN, number of right turns, M [7]: 5.08*
S_PtrN, duration of the second patrolling cycle (number of arm visits), M [7]: 5.00^+
S_VisN, spontaneous stereotype behavior, M [7]: 4.17*
T_GlTm, total time spent in the side arms of the maze, M [7]: 238.16*^+
rl_Ind, asymmetry index of turns, M [7]: 0.58
F_ChTm, latency of the first arm visit, M [8]: 8.33
F_GlTm, length of the first arm visit, M [8]: 33.62*
T_ChTm, total time spent in the central compartment of the maze, M [8]: 42.23*
nootropic effect (improvement in the patrolling behavior, decrease in S_PtrN) [9]: nootropic effect
sedative effect (reduction in the speed of movement in the maze; increase in T_ChTm and T_GlTm) [9]: sedative effect
spontaneous stereotype behavior (variable S_VisN), change (single administration, 2.5 and 5.0 mg/kg doses, listed as (−)-trans-2,8-dimethyl-2,3,4,4a,5,9b-hexahydro-1H-pyrido[4,3-b]indole): significantly decreased; also recorded: decrease

Cc1ccc2c(c1)[C@H]1CN(C)CC[C@@H]1N2 [Trans-(+)-isomer, (+)-trans-2,8-dimethyl-2,3,4,4a,5,9b-hexahydro-1H-pyrido[4,3-b]indole]
F_PtrN, duration of the first patroling cycle (number of arm visits), M [5]: 5.75
L_TrnN, number of left turns, M [5]: 4.17
PatrlN, number of patrolling cycles, M [5]: 2.00
R_TrnN, number of right turns, M [5]: 2.67
S_PtrN, duration of the second patrolling cycle (number of arm visits), M [5]: 4.55*^+
S_VisN, spontaneous stereotype behavior, M [5]: 5.75
T_GlTm, total time spent in the side arms of the maze, M [5]: 271.98*^+
rl_Ind, asymmetry index of turns, M [5]: 0.39
F_ChTm, latency of the first arm visit, M [6]: 9.18
F_GlTm, length of the first arm visit, M [6]: 22.91
T_ChTm, total time spent in the central compartment of the maze, M [6]: 53.27*
F_PtrN, duration of the first patroling cycle (number of arm visits), M [7]: 6.30
L_TrnN, number of left turns, M [7]: 4.82
PatrlN, number of patrolling cycles, M [7]: 1.64
R_TrnN, number of right turns, M [7]: 3.09
S_PtrN, duration of the second patrolling cycle (number of arm visits), M [7]: 5.43^+
S_VisN, spontaneous stereotype behavior, M [7]: 5.55
T_GlTm, total time spent in the side arms of the maze, M [7]: 391.25*^+
rl_Ind, asymmetry index of turns, M [7]: 0.38
F_ChTm, latency of the first arm visit, M [8]: 24.60*
F_GlTm, length of the first arm visit, M [8]: 43.48*
T_ChTm, total time spent in the central compartment of the maze, M [8]: 58.27*
sedative effect compared with the other optic isomer ((+)- versus (−)-trans isomer, 2.5 and 5.0 mg/kg): higher sedative effect
nootropic effect (improvement in the patrolling behavior, decrease in S_PtrN) [9]: nootropic effect
sedative effect (reduction in the speed of movement in the maze; increase in T_ChTm and T_GlTm) [9]: sedative effect
spontaneous stereotype behavior (variable S_VisN), change [9]: did not demonstrate this ability

CN(C)CCOC(=O)COc1ccc(Cl)cc1 [Meclofenaxate, reference compound]
F_PasN, M [10]: 3.6
F_PtrN, duration of the first patroling cycle (number of arm visits), M [10]: 4.8*
L_TrnN, number of left turns, M [10]: 4.5
PatrlN, number of patrolling cycles, M [10]: 2.5*
R_TrnN, number of right turns, M [10]: 3.8
S_PtrN, duration of the second patrolling cycle (number of arm visits), M [10]: 4.6*
S_VisN, spontaneous stereotype behavior, M [10]: 3.7
rl_Ind, asymmetry index of turns, M [10]: 0.4
F_ChTm, latency of the first arm visit, M [11]: 15.4
F_GlTm, length of the first arm visit, M [11]: 29.1
T_ChTm, total time spent in the central compartment of the maze, M [11]: 40.5
T_GlTm, total time spent in the side arms of the maze, M [11]: 145.4
nootropic effect (decrease in F_PtrN and S_PtrN, increase in PatrlN) (100 mg/kg): nootropic effect

From US20080262019A1, “Optical Isomers of (+) and (-)-Trans-2,3,4,4A,5,9B-Hexahydro-2,8-Dimethyl-1H-Pyrido[4,3-B] Indole” (priority 2005, published 2008)
